Series [1] deals with wild type mice (male NMRI). Put plainly: Marble Burying Test in wild type mice. In kind it is in vivo, mouse. The procedure, abridged:
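Male NMRI mice, 12 per group, received compound in 0.5% DMSO/4% HP-β-CD PO or IP 20 min before test. Marbles (25) buried two-thirds or more in sawdust were counted over a blind 30-min session. Groups were compared with vehicle by Kruskal-Wallis then Mann-Whitney U.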

A further series deals with CYP2D6 (Homo sapiens (Human), UniProt P10635). The series is described as follows: CYP P450 enzyme inhibition in pooled human liver microsomes (dextromethorphan probe). In kind it is in vitro ADME. As to conditions: for inhibition at 10 min, 10 µM: human, pooled human liver microsomes, pH 7.4, probe dextromethorphan, 5 μM, read-out: CYP2D6 Inhibiton at 10 μM. As for the experimental part:
Test compound concentration-dependent response studies were performed in triplicate.
For orientation: Liver microsomes are vesicles of endoplasmic reticulum, rich in cytochrome P450 enzymes.

A short description of series [2]: Clearance of compound from plasma after IP dosing in mice. The series is classed as in vivo, mouse.
A further series concerns the target human NR1/NR2B (Homo sapiens (Human), UniProt Q05586+Q13224). The series is described as follows: NR2B antagonist activity: calcium influx (Fluo-4) assay in HEK293 cells. As to conditions: read-out: NR2B IC50. The series is classed as cell-based. Summed up:
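HEK293 cells expressing NR1/NR2A or NR1/NR2B, loaded with fluo-4-AM, preincubated 10 min at room temperature with compound in Hanks buffer/0.1% BSA.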

[3] abbreviates: Mus musculus, ip, read-out: Percent Change in marbles buried relative to vehicle.
[4] abbreviates: Mus musculus, po, read-out: Percent Change in marbles buried relative to vehicle.

The structures appear in SMILES notation. Read-outs that look alike come from different tables or passages of the source.

Sequence of CYP2D6 (P10635 whole entry): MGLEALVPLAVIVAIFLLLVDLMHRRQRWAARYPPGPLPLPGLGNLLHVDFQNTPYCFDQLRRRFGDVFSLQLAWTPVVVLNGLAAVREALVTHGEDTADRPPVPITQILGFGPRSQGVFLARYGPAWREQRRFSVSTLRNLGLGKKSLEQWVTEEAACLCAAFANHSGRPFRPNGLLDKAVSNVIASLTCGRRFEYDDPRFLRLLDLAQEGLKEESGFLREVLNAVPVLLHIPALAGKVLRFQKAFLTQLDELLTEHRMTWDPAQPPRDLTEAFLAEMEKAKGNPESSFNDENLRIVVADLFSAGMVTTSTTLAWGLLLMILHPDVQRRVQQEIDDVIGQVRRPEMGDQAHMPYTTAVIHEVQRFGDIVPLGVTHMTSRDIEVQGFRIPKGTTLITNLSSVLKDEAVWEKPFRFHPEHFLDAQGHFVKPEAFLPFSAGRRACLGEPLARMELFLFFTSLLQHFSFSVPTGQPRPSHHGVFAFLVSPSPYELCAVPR
Sequence of human NR1/NR2B (Q13224 27-1484, other chains not shown): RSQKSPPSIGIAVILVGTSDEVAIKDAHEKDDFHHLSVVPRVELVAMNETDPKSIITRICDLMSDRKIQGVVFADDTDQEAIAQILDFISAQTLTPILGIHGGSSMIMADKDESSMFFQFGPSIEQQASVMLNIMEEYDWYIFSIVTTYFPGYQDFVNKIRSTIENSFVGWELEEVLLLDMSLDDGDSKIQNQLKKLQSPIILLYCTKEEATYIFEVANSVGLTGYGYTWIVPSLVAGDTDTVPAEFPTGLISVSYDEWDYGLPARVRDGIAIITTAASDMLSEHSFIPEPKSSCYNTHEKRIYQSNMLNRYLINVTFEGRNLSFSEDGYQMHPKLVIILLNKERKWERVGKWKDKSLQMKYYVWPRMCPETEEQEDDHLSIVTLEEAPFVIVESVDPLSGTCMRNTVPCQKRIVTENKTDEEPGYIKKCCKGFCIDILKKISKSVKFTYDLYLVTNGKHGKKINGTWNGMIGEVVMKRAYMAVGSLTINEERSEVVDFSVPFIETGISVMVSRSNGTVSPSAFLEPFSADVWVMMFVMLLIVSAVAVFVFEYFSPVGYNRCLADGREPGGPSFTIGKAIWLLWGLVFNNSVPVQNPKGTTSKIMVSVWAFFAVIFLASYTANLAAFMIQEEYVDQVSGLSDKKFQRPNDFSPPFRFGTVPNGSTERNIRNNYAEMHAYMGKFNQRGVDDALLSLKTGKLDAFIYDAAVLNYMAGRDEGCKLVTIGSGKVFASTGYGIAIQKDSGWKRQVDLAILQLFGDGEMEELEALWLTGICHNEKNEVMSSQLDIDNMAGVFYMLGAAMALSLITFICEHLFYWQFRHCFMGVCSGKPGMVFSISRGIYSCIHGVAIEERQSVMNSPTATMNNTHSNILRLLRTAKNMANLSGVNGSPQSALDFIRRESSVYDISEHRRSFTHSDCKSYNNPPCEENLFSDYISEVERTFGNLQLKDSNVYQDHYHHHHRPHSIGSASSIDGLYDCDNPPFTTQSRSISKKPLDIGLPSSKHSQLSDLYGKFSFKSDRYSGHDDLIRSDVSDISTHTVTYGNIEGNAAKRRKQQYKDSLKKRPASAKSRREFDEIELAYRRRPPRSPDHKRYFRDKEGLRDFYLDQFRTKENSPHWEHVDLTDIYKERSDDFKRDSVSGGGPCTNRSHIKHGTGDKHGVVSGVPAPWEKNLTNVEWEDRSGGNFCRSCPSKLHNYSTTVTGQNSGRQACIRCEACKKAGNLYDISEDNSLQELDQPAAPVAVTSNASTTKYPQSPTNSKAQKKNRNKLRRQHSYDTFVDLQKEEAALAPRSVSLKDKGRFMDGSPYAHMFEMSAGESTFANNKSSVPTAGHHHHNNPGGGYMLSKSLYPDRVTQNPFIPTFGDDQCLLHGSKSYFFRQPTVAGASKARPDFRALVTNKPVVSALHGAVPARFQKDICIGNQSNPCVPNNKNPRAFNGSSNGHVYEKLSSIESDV

Usually IC50 stands for the concentration needed to halve the response being measured. On to `Cc1ccc(COC(=O)N2CC[C@H](CNc3ncccn3)C(F)(F)C2)cc1` [E1-22.2^B′], for which the change in vivo at 0.03 mg/kg in series [1] (Mus musculus, ip, 0.03 mg/kg, read-out: Percent Change in marbles buried relative to vehicle) was -9%. In addition, in series [1] (setting [3]), the change in vivo at 0.1 mg/kg was -13%, the change in vivo at 0.3 mg/kg is -92%, the change in vivo at 0.316 mg/kg is -68% and the change in vivo at 3 mg/kg was -93%. For the same molecule, the change in vivo at 10 mg/kg in series [1] (setting [3]) was -97%. Moreover, in series [1] (setting [4]), the change in vivo at 0.1 mg/kg came to 14%, the change in vivo at 0.3 mg/kg amounted to 16%, the change in vivo at 3 mg/kg is -88% and the change in vivo at 10 mg/kg is -99%. Further, the “efficacy in the Marble Burying Test” value in series [1] (lowest test concentration of 1 mg/kg, IP) is listed as “fully efficacious”. Further, at CYP2D6 (Table 1.4B), the IC50 is greater than 50000 nM.

On to `Cc1ccc(COC(=O)N2CC[C@H](CNc3cnc(C)cn3)C(F)(F)C2)cc1` [E1-21.26^B′], for which the “time to clearance of the compound from plasma” value in series [2] is on record as “about 8 hours”. Besides, the change in vivo at 0.316 mg/kg in series [1] (setting [3]) is -14%. For the same molecule, the change in vivo at 3 mg/kg is -97% in series [1] (setting [3]) and -41% in series [1] (setting [4]). Also, the change in vivo at 10 mg/kg in series [1] (setting [3]) was -96%; in series [1] (setting [4]), -78%. For the same molecule, in series [1] (setting [4]), the change in vivo at 1 mg/kg turned out to be 8%. Further, the inhibition at 10 min, 10 µM at CYP2D6 came out at 32%. In addition, the IC50 on human NR1/NR2B (Table 1.1B), at human NR1/NR2B (Table 1.3B) and on human NR1/NR2B (Table 1.4B) was 29 nM each time.

Regarding `FC(F)c1ccc(C(F)(F)CN2CCC(Nc3ncnc4[nH]ccc34)CC2)cc1` [C-179^A′], the “time to clearance of the compound from plasma” value in series [2] is listed as “about 8 hours”. For the same molecule, in series [1] (setting [3]), the change in vivo at 0.316 mg/kg worked out at 9%, the change in vivo at 3 mg/kg was -96% and the change in vivo at 10 mg/kg is -94%. In series [1] (setting [4]), the change in vivo at 1 mg/kg is -1.1%, the change in vivo at 3 mg/kg is -81% and the change in vivo at 10 mg/kg is -99%. The change in vivo at 1.78 mg/kg in series [1] (Mus musculus, po, 1.78 mg/kg, read-out: Percent Change in marbles buried relative to vehicle) is -81%.

With `Cc1ccc(COC(=O)N2CC[C@H](CNc3nccn4cnnc34)C(F)(F)C2)cc1` [E1-1.2^B′], at CYP2D6, the inhibition at 10 min, 10 µM stood at 14%. Further, the IC50 at human NR1/NR2B (Table 1.1B), at human NR1/NR2B (Table 1.3B) and on human NR1/NR2B (Table 1.4B) was 20.7 nM throughout.

(Values after patent publication US11752155B2, “Treatment of autism spectrum disorders, obsessive-compulsive disorder and anxiety disorders” (Rugen Holdings (Cayman) Limited, priority 2016, dated 2023).)
